The source of these data is patent US9073863B2, “Cyanoquinoline compounds having activity in correcting mutant-CFTR processing and increasing ion transport and uses thereof” (The Regents of the University of California, priority 2011, dated 2015).

In assay [1] the target is T1, ΔF508-CFTR (Homo sapiens, UniProt P13569, DEL508-508).
T1 construct: expressed in transfected cells; host or cells: Fischer rat thyroid (FRT) epithelial cells, stably transfected
Briefly: Corrector assay, YFP fluorescence plate reader iodide influx in ΔF508-CFTR expressing FRT cells. The class given is cell-based. The note with it: 18-24 h with compound at 37° C., forskolin 20 μM + genistein 50 μM. The protocol:
(§1) Screening procedures. Screening of compounds for activity was carried out using a Beckman Coulter platform equipped with FLUOstar fluorescence plate readers (Optima; BMG Labtech) with dual syringe pumps and 500±10 nm excitation and 535±15 nm emission filters (Chroma Corp.). For the corrector assay, FRT cells were grown at 37° C./5% CO2 for 18-24 h and then incubated for 18-24 h with 100 μL of medium containing test compounds (25 μM final concentration). At the time of the assay, cells were washed with PBS and then incubated for 10 min with PBS containing forskolin (20 μM) and genistein (50 μM). For the potentiator assay, FRT cells were grown at 37° C./5% CO2 for 18-24 h and then for 18-24 h at 27° C. At the time of the assay, cells were washed with PBS and then incubated for 10 min with PBS (50 μL) containing forskolin (20 μM) and test compound (0-25 μM final concentration). For both the corrector and potentiator assays, each well was assayed individually for I^− influx by recording fluorescence continuously (200 ms per point) for 2 s (baseline) and then for 12 s after rapid addition of 165 μL PBS in which 137 mM Cl^− was replaced by I^−. Initial I^− influx rate was computed by fitting the final 11.5 seconds of the data to an exponential for extrapolation of initial slope, which was normalized for background-subtracted initial fluorescence. All compound plates contained negative controls and positive controls (10 μM Corr-4a for corrector assay; 50 μM genistein for potentiator assay).
(§2) Screening of about 110,000 small molecules was done to identify new ΔF508-CFTR corrector scaffolds having high correction efficiency and/or having independent potentiator activity. […] FRT cells co-expressing human ΔF508-CFTR and a halide-sensing YFP were incubated with test compounds at 37° C. (corrector assay) or 27° C. (potentiator assay). ΔF508-CFTR function was assayed in a plate reader from YFP fluorescence quenching in response to iodide addition in the presence of forskolin (20 μM) plus genistein (50 μM) for corrector assay, or forskolin (20 μM) alone for potentiator assay. As shown in FIG. 1A (left), primary screening for corrector activity was done using a cell-based fluorescence assay of iodide influx in which FRT cells expressing ΔF508-CFTR and an iodide-sensitive YFP were incubated with test compounds at 10 μM for 18-24 h prior to assay. Iodide influx was measured by addition of extracellular iodide in the presence of a potentiator (50 μM genistein) and cAMP agonist (20 μM forskolin). Compound efficacy and potency (from concentration-dependence studies) in the corrector assay were compared to reference bithiazole Corr-4a (10 μM) and to low-temperature rescued cells. Active compounds were counter-screened for potentiator activity (FIG. 1A, right) in which iodide influx was measured in the ΔF508-CFTR expressing FRT cells after low-temperature rescue and in the presence of 20 μM forskolin.
(§3) Screening procedures. Plate reader activity assay was carried out using a Beckman Coulter platform containing a robotic arm, CO2 incubator containing microplate carousel, plate-washer, liquid handling work station, bar code reader, de-lidding station, plate sealer, and FLUOstar fluorescence plate readers (Optima; BMG LABTECH Gmbh), equipped with dual syringe pumps and 500±10 nm excitation and 535±15 nm emission filters (Chroma Corp.). For the corrector assay, ΔF508-CFTR-expressing FRT cells were grown at 37° C. (90% humidity; 5% CO2) for 18-24 h and then incubated for 18-24 h with 100 μL of medium containing test compounds (0-25 μM final concentration). At the time of the assay, cells were washed with PBS and then incubated for 10 min with PBS containing forskolin (20 μM) and genistein (50 μM). For the potentiator assay, FRT cells were grown at 37° C. (90% humidity; 5% CO2) for 18-24 h and then for 18-24 h at 27° C. […]

Assay [2] has as its target T1, ΔF508-CFTR. Briefly: Potentiator assay, YFP fluorescence plate reader iodide influx in low-temperature rescued ΔF508-CFTR expressing FRT cells. It counts as cell-based. The conditions noted are these: forskolin 20 μM + test compound. The protocol: as §1, §2, §3
The mark [3] stands for this setting: Table VIII, FRT cells, I− influx.
The mark [4] stands for this setting: Table VIII, FRT cells 18-24 h at 27° C., I− influx.
The mark [5] stands for this setting: Table IX, additional experiments.
The mark [6] stands for this setting: Table IX, additional experiments, 18-24 h at 27° C.

T1 sequence (P13569 with tags, fused parts or gaps DEL508-508): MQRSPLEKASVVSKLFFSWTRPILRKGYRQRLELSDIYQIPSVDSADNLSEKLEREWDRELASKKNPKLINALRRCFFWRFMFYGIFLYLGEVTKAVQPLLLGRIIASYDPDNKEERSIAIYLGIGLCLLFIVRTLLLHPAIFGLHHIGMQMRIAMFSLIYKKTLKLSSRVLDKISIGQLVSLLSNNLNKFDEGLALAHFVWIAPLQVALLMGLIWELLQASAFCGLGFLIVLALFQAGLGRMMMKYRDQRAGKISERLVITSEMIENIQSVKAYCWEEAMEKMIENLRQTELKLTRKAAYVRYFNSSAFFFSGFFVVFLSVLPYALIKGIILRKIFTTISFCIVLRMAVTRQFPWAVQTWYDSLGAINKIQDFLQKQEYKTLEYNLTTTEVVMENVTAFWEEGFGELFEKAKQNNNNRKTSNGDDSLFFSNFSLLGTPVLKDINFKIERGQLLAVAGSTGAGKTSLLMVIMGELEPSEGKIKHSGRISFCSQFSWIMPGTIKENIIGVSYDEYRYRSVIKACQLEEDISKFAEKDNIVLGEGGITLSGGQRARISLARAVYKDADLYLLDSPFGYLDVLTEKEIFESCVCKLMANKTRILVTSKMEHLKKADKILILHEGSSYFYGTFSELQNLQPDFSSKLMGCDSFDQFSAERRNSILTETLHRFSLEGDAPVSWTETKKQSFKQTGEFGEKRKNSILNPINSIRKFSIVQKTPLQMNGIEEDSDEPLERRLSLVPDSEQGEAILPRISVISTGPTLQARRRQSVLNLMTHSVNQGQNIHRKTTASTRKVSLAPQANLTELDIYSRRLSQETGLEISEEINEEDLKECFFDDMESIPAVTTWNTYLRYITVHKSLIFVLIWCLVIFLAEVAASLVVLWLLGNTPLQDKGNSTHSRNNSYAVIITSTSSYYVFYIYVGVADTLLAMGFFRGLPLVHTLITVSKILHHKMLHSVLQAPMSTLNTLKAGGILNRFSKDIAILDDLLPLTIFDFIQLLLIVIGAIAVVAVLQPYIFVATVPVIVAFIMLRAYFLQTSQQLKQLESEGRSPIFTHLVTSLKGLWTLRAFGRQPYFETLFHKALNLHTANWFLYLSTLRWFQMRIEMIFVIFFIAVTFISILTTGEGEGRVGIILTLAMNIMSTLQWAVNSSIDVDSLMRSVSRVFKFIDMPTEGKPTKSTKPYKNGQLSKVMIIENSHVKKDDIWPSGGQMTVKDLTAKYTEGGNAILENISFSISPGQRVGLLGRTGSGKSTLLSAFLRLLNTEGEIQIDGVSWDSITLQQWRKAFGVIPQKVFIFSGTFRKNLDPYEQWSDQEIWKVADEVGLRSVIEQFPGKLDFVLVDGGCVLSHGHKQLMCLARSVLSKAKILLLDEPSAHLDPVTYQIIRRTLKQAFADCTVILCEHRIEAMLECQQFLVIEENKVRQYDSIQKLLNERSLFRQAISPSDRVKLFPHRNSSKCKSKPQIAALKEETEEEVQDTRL

Take `COc1ccc(C(=O)NCCNc2nc3cc(C)cc(C)c3cc2C#N)cc1` [drawing 148]: in assay [1] (setting [3]), the “Corrector Vmax” value is 172 µM/s and the EC50 amounted to 3 µM. In assay [2] (setting [4]), the concentration for a half-maximal effect (EC50) is 4.1 µM and the “Potentiator Vmax” value came out at 181 µM/s.
On to `Cc1cc(C)c2cc(C#N)c(NCCNC(=O)c3ccccn3)nc2c1` [drawing 149], for which the “Corrector Vmax” value in assay [1] (setting [3]) was “inactive”. For the same compound, the “Potentiator Vmax” value in assay [2] (setting [4]) came to 80 µM/s.
Turning to `Cc1cc(C)c2cc(C#N)c(NCCNC(=O)c3cccnc3)nc2c1` [drawing 150], in assay [1] (setting [3]), the “Corrector Vmax” value worked out at 223 µM/s and the half-maximal effective concentration (EC50) was determined as 15.2 µM. Further, in assay [2] (setting [4]), the EC50 turned out to be 11 µM and the “Potentiator Vmax” value worked out at 152 µM/s.
For `Cc1cc(C)c2cc(C#N)c(NCCNC(=O)c3ccncc3)nc2c1` [drawing 151], in assay [1] (setting [3]), the “Corrector Vmax” value came to 172 µM/s and the EC50 came to 9.1 µM. The “Potentiator Vmax” value in assay [2] (setting [4]) is 220 µM/s.
As for `COc1ccccc1C(=O)N1CCN(c2nc3cc(C)cc(C)c3cc2C#N)CC1` [drawing 152], the “Corrector Vmax” value in assay [1] (setting [3]) is “inactive”. In assay [2] (setting [4]), the “Potentiator Vmax” value was found to be 129 µM/s.
Regarding `COc1cccc(C(=O)N2CCN(c3nc4cc(C)cc(C)c4cc3C#N)CC2)c1` [drawing 153], the “Corrector Vmax” value in assay [1] (setting [3]) is “inactive”. For the same compound, in assay [2] (setting [4]), the concentration giving a half-maximal response (EC50) amounted to 1.2 µM and the “Potentiator Vmax” value was found to be 200 µM/s.
Taken in the same sequence, the figures for `COc1ccc(C(=O)N2CCN(c3nc4cc(C)cc(C)c4cc3C#N)CC2)cc1` [drawing 154] were “inactive”, 1.3 µM and 281 µM/s.
For `Cc1cc(C)c2cc(C#N)c(N3CCN(C(=O)c4ccccn4)CC3)nc2c1` [drawing 155], in assay [1] (setting [3]), the “Corrector Vmax” value was “inactive”. In addition, the “Potentiator Vmax” value in assay [2] (setting [4]) was 102 µM/s.
`COc1cccc(C(=O)NCCCNc2nc3cc(C)cc(C)c3cc2C#N)c1` [drawing 159]: in assay [1] (setting [3]), the “Corrector Vmax” value is 134 µM/s. Further, in assay [2] (setting [4]), the 50% effective concentration (EC50) was 4.6 µM and the “Potentiator Vmax” value was found to be 147 µM/s.
Taken in the same sequence, the figures for `COc1ccc(C(=O)NCCCNc2nc3cc(C)cc(C)c3cc2C#N)cc1` [drawing 160] were 112 µM/s, 5 µM and 231 µM/s.
As for `Cc1cc(C)c2cc(C#N)c(NCCCNC(=O)c3cccnc3)nc2c1` [drawing 162], in assay [1] (setting [3]), the “Corrector EC50” value was “inactive” and the “Corrector Vmax” value was “inactive”. Besides, in assay [2] (setting [4]), the half-maximal effective concentration (EC50) is 16 µM and the “Potentiator Vmax” value was 115 µM/s.
On to `COc1cccc(C(=O)NCCNc2nc3cc(C)cc(C)c3cc2C#N)c1` [drawing 164], for which, in assay [1] (setting [5]), the “Corrector Vmax” value turned out to be 300 µM/s and the concentration giving a half-maximal response (EC50) came out at 2.2 ± 0.3 µM. For the same compound, in assay [2] (setting [6]), the EC50 is 5.9 ± 0.5 µM and the “Potentiator Vmax” value is 216 µM/s.
For the compound `COc1ccccc1C(=O)NCCNc1nc2cc(C)cc(C)c2cc1C#N` [drawing 165], in assay [1] (setting [5]), the “Corrector Vmax” value came out at 114 µM/s and the half-maximal effective concentration (EC50) was 11 ± 0.9 µM. For the same compound, the “Potentiator Vmax” value in assay [2] (setting [6]) worked out at 154 µM/s.
Take `COc1ccc(C(=O)NCCNc2nc3cc(C)cc(C)c3cc2C#N)cc1` [drawing 166]: the “Corrector Vmax” value in assay [1] (setting [5]) is 172 µM/s. Further, the “Potentiator Vmax” value in assay [2] (setting [6]) was determined as 181 µM/s.
Consider `Cc1cc(C)c2cc(C#N)c(NCCNC(=O)c3ccccn3)nc2c1` [drawing 167], for which, in assay [1] (setting [5]), the “Corrector EC50” value was “inactive” and the “Corrector Vmax” value is “inactive”. Also, in assay [2] (setting [6]), the concentration giving a half-maximal response (EC50) is 1.2 ± 0.4 µM and the “Potentiator Vmax” value is 80 µM/s.
As for `Cc1cc(C)c2cc(C#N)c(NCCNC(=O)c3cccnc3)nc2c1` [drawing 168], in assay [1] (setting [5]), the “Corrector Vmax” value was determined as 151 µM/s and the EC50 came to 2.7 ± 0.6 µM. In assay [2] (setting [6]), the EC50 was 13.2 ± 0.6 µM and the “Potentiator Vmax” value amounted to 242 µM/s.
Turning to `Cc1cc(C)c2cc(C#N)c(NCCNC(=O)c3ccncc3)nc2c1` [drawing 169], in assay [1] (setting [5]), the “Corrector Vmax” value was 176 µM/s and the concentration for a half-maximal effect (EC50) came out at 7.3 ± 0.8 µM. Moreover, in assay [2] (setting [6]), the EC50 was 10 ± 3.1 µM and the “Potentiator Vmax” value worked out at 220 µM/s.
As to `COc1ccccc1C(=O)N1CCN(c2nc3cc(C)cc(C)c3cc2C#N)CC1` [drawing 170], in assay [1] (setting [5]), the “Corrector EC50” value is “inactive” and the “Corrector Vmax” value was “inactive”. Besides, in assay [2] (setting [6]), the concentration for a half-maximal effect (EC50) was 1 ± 0.3 µM and the “Potentiator Vmax” value came to 129 µM/s.
Take `COc1cccc(C(=O)N2CCN(c3nc4cc(C)cc(C)c4cc3C#N)CC2)c1` [drawing 171]: in assay [1] (setting [5]), the “Corrector EC50” value was “inactive” and the “Corrector Vmax” value was “inactive”. Also, in assay [2] (setting [6]), the “Potentiator Vmax” value turned out to be 200 µM/s.
For `COc1ccc(C(=O)N2CCN(c3nc4cc(C)cc(C)c4cc3C#N)CC2)cc1` [drawing 172], in assay [1] (setting [5]), the “Corrector EC50” value was “inactive” and the “Corrector Vmax” value was “inactive”. Also, in assay [2] (setting [6]), the “Potentiator Vmax” value worked out at 281 µM/s.
Turning to `Cc1cc(C)c2cc(C#N)c(N3CCN(C(=O)c4ccccn4)CC3)nc2c1` [drawing 173], in assay [1] (setting [5]), the “Corrector EC50” value is “inactive” and the “Corrector Vmax” value is “inactive”. In assay [2] (setting [6]), the EC50 was found to be 7.4 ± 0.3 µM and the “Potentiator Vmax” value was 102 µM/s.
As to `Cc1cc(C)c2cc(C#N)c(N3CCN(C(=O)c4cccnc4)CC3)nc2c1` [drawing 174], in assay [1] (setting [5]), the “Corrector EC50” value is “inactive” and the “Corrector Vmax” value was “inactive”. Also, in assay [2] (setting [6]), the “Potentiator EC50” value is “inactive” and the “Potentiator Vmax” value is “inactive”.
As to `COc1cccc(C(=O)NCCCNc2nc3cc(C)cc(C)c3cc2C#N)c1` [drawing 177], the “Corrector Vmax” value in assay [1] (setting [5]) is 134 µM/s. Further, in assay [2] (setting [6]), the “Potentiator Vmax” value came out at 147 µM/s.
With `COc1ccc(C(=O)NCCCNc2nc3cc(C)cc(C)c3cc2C#N)cc1` [drawing 178], in assay [1] (setting [5]), the “Corrector Vmax” value was 112 µM/s and the EC50 amounted to 4.3 ± 0.2 µM. Besides, the “Potentiator Vmax” value in assay [2] (setting [6]) is 231 µM/s.
With `Cc1cc(C)c2cc(C#N)c(NCCCNC(=O)c3ccccn3)nc2c1` [drawing 179], in assay [1] (setting [5]), the “Corrector Vmax” value is “inactive”. Further, in assay [2] (setting [6]), the “Potentiator Vmax” value stood at 233 µM/s.
In the case of `Cc1cc(C)c2cc(C#N)c(NCCCNC(=O)c3cccnc3)nc2c1` [drawing 180], in assay [1] (setting [5]), the “Corrector Vmax” value came to 140 µM/s and the EC50 was determined as 3 ± 0.5 µM. For the same compound, the “Potentiator Vmax” value in assay [2] (setting [6]) came to 115 µM/s.
On to `Cc1cc(C)c2cc(C#N)c(NCCCNC(=O)c3ccncc3)nc2c1` [drawing 181], for which, in assay [1] (setting [5]), the “Corrector Vmax” value was found to be 61 µM/s and the EC50 came to 8.2 ± 0.4 µM. Moreover, in assay [2] (setting [6]), the 50% effective concentration (EC50) was determined as 13.2 ± 0.4 µM and the “Potentiator Vmax” value came to 53 µM/s.
For the compound `COc1ccc(C(=O)NCCNc2nc3cc(C)cc(C)c3cc2C#N)cc1OC` [drawing 185], in assay [1] (setting [5]), the “Corrector Vmax” value is 380 µM/s and the concentration for a half-maximal effect (EC50) was 1.5 ± 0.4 µM. For the same compound, in assay [2] (setting [6]), the concentration for a half-maximal effect (EC50) amounted to 48 ± 5 µM and the “Potentiator Vmax” value stood at 216 µM/s.
The like results for `COc1ccc(C(=O)NCCNc2nc3cc(C)cc(C)c3cc2C#N)nc1` [drawing 186] were, in that order, 88 µM/s, 2.7 ± 0.5 µM, 3.4 ± 0.5 µM and 70 µM/s.

By EC50 is commonly meant the concentration needed to bring the measured effect to its halfway point.
